Target: GPR120L receptor (Homo sapiens (Human), UniProt Q5NUL3)
Assay: Beta (β) arrestin 2 Interaction Assay (BRET assay), β-galactosidase enzyme fragment complementation
Format: cell-based
Settings: CHO-K1 cells stably expressing the GPR120L receptor; β-arrestin recruitment; 2 hours incubation
Experimental: Beta (β) arrestin 2 Interaction Assay (BRET assay) was performed using CHO-K1 cells stably expressing the GPR120L receptor using β-galactosidase (Beta gal) enzyme fragment complementation assay. The measurement of GPR120 activation upon agonist activation was directly provided by β-arrestin recruitment. One day before the β-arrestin 2 assay, CHO-K1 cells were seeded and incubated overnight at 37° C. in a 5% CO2 humidified atmosphere. Cells were treated with the test compounds in the various concentrations ranging from 30 μM to 1 nM and incubated for 2 hours for GPCR (GPR120) activation. Extent of Arrestin recruitment was measured by adding detection reagents for Beta gal complementation assay and was further incubated for 1 hour. The chemi-luminescent signal was detected on Polar Star (BMG Labtech). The dose-response curve was analyzed using Sigma Plot/Graph Pad. The EC50 (concentration of the test compounds where 50% of compounds' maximal activity is observed) values were calculated from the dose-response curve.

Sequence of GPR120L receptor (Q5NUL3 other isoform, or with tags, fused parts or gaps): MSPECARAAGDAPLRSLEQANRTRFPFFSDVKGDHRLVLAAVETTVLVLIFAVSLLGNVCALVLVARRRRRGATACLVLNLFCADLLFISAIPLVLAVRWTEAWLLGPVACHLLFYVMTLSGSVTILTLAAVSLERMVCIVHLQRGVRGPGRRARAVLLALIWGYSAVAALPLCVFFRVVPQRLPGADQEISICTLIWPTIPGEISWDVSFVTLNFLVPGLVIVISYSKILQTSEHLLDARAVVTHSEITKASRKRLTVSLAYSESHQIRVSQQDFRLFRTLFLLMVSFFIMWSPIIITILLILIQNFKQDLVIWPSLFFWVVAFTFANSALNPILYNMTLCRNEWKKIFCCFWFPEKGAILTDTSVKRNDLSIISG

`Cc1cc(-c2ccc(F)cc2COc2ccc(CCCC(=O)O)cc2)ccc1C1CC1` [Example 29, 4-(4-((4′-cyclopropyl-4-fluoro-3′-methyl-[1,1′-biphenyl]-2-yl)methoxy)phenyl)butanoic acid] was tested, and the EC50 was 10 to 500 nM.

`N#CC1(c2ccc(-c3ccncc3COc3ccc(CCCC(=O)O)cc3)cc2)CC1` [Example 19, 4-(4-((4-(4-(1-Cyanocyclopropyl)phenyl)pyridin-3-yl)methoxy)phenyl)butanoic acid] gave an EC50 of 500 to 5000 nM.

Work on `CC1(C)CCC=C1c1ccc(-c2ccc(F)cc2COc2ccc(CCC(=O)O)cc2)cc1` [Example 15, 3-(4-((4′-(5,5-Dimethylcyclopent-1-en-1-yl)-4-fluoro-[1,1′-biphenyl]-2-yl)methoxy)phenyl)propanoic acid] yielded an EC50 of 5000 to 50000 nM.

For `O=C(O)CCCc1ccc(OCc2ccccc2-c2ccc3c(c2)CCCC3)cc1` [Example 27, 4-(4-((2-(5,6,7,8-tetrahydronaphthalen-2-yl)benzyl)oxy)phenyl)butanoic acid], the EC50 was 10 to 500 nM.

`O=C(O)CCCc1ccc(OCc2cc(F)ccc2-c2nc3c(s2)CCCC3)cc1` [Example 46, 4-(4-((5-Fluoro-2-(4,5,6,7-tetrahydrobenzo[d]thiazol-2-yl)benzyl)oxy)phenyl)butanoic acid] was tested, and the EC50 was 10 to 500 nM.

`O=C(O)CCCc1ccc(OCc2cc(F)ccc2-c2nc3c(s2)CCC3)cc1` [Example 47, 4-(4-((2-(5,6-dihydro-4H-cyclopenta[d]thiazol-2-yl)-5-fluorobenzyl)oxy)phenyl)butanoic acid] showed an EC50 of 10 to 500 nM.

For `O=C(O)CCCc1ccc(OCc2cc(F)ccc2-c2nnc(C3CC3)s2)cc1` [Example 44, 4-(4-((2-(5-Cyclopropyl-1,3,4-thiadiazol-2-yl)-5-fluorobenzyl)oxy)phenyl)butanoic acid], the EC50 was 10 to 500 nM.

Molecule `O=C(O)CCCc1ccc(OCc2cc(F)ccc2-c2ncc(C3CC3)s2)cc1` [Example 45, 4-(4-((2-(5-Cyclopropylthiazol-2-yl)-5-fluorobenzyl)oxy)phenyl)butanoic acid] has an EC50 of 10 to 500 nM.

In the case of `O=C(O)CCCc1ccc(OCc2cc(F)ccc2-c2ccc(C3(F)CC3)s2)cc1` [Example 42, 4-(4-((5-Fluoro-2-(5-(1-fluorocyclopropyl)thiophen-2-yl)benzyl)oxy)phenyl)butanoic acid], the EC50 is reported as 5000 to 50000 nM.

Molecule `O=C(O)CCCc1ccc(OCc2cc(F)ccc2-c2ccc(C3CC3(F)F)cc2)cc1` (centres unmarked) [Example 43, 4-(4-((4′-(2,2-Difluorocyclopropyl)-4-fluoro-[1,1′-biphenyl]-2-yl)methoxy)phenyl)butanoic acid] has an EC50 of 10 to 500 nM.

Work on `CC1=CCCc2cc(-c3ccc(F)cc3COc3ccc(CCCC(=O)O)cc3)ccc21` [Example 37] yielded an EC50 of 500 to 5000 nM.

Molecule `CC1(c2ccc(-c3ccc(F)cc3COc3ccc(CCCC(=O)O)cc3)cc2)CC1` [Example 3, 4-(4-((4-Fluoro-4′-(1-methylcyclopropyl)-[1,1′-biphenyl]-2-yl)methoxy)phenyl)butanoic acid] has an EC50 of 10 to 500 nM.

With `N#CC1(c2ccc(-c3ccc(F)cc3COc3ccc(CCCC(=O)O)cc3)s2)CC1` [Example 1, 4-(4-((2-(5-(1-Cyanocyclopropyl)thiophen-2-yl)-5-fluorobenzyl)oxy)phenyl)butanoic acid] the EC50 was 10 to 500 nM.

Molecule `O=C(O)CCCc1ccc(OCc2cc(F)ccc2-c2cc3c(s2)CCCC3)cc1` [Example 23, 4-(4-((5-Fluoro-2-(4,5,6,7-tetrahydrobenzo[b]thiophen-2-yl)benzyl)oxy)phenyl)butanoic acid] has an EC50 of 10 to 500 nM.

Work on `O=C(O)CCCc1ccc(OCc2cc(F)ccc2-c2ccc(C3CC3)nc2)cc1` [Example 30, 4-(4-((2-(6-Cyclopropylpyridin-3-yl)-5-fluorobenzyl)oxy)phenyl)butanoic acid] yielded an EC50 of 10 to 500 nM.

For `O=C(O)CCCc1ccc(OCc2cc(F)ccc2-c2scnc2C2CC2)cc1` [Example 32, 4-(4-((2-(4-Cyclopropylthiazol-5-yl)-5-fluorobenzyl)oxy)phenyl)butanoic acid], the EC50 was 5000 to 50000 nM.

`N#CC1(c2ccc(-c3ccc(F)cc3COc3ccc(CCCC(=O)O)cc3)cc2)CC1` [Example 4, 4-(4-((4′-(1-Cyanocyclopropyl)-4-fluoro-[1,1′-biphenyl]-2-yl)methoxy)phenyl)butanoic acid] showed an EC50 of 10 to 500 nM.

Work on `O=C(O)CCCc1ccc(OCc2cc(F)ccc2-c2cnc3c(c2)CCC3)cc1` [Example 24, 4-(4-((2-(6,7-Dihydro-5H-cyclopenta[b]pyridin-3-yl)-5-fluorobenzyl)oxy)phenyl)butanoic acid] yielded an EC50 of 10 to 500 nM.

In the case of `COC1(C)CCCc2cc(-c3ccc(F)cc3COc3ccc(CCCC(=O)O)cc3)ccc21` (centres unmarked) [Example 39, 4-(4-((5-Fluoro-2-(5-methoxy-5-methyl-5,6,7,8-tetrahydronaphthalen-2-yl)benzyl)oxy)phenyl)butanoic acid], the EC50 is reported as 5000 to 50000 nM.

With `O=C(O)CCc1ccc(OCc2cc(F)ccc2-c2ccc(C3COC3)nc2)cc1` [Example 17, 3-(4-((5-Fluoro-2-(6-(oxetan-3-yl)pyridin-3-yl)benzyl)oxy)phenyl)propanoic acid] the EC50 was 5000 to 50000 nM.

In the case of `N#CC1(c2ccc(-c3ccc(F)cc3COc3ccc(CCC(=O)O)cc3)cc2)CC1` [Example 5, 3-(4-((4′-(1-Cyanocyclopropyl)-4-fluoro-[1,1′-biphenyl]-2-yl)methoxy)phenyl)propanoic acid], the EC50 is reported as 10 to 500 nM.

For `C=C1CCCc2cc(-c3ccc(F)cc3COc3ccc(CCCC(=O)O)cc3)ccc21` [Example 36, 4-(4-((5-Fluoro-2-(5-methylene-5,6,7,8-tetrahydronaphthalen-2-yl)benzyl)oxy)phenyl)butanoic acid], the EC50 was 10 to 500 nM.

In the case of `N#CC1(c2ccc(-c3ccc(F)cc3COc3ccc(CCC(=O)O)nc3)cc2)CC1` [Example 18, 3-(5-((4′-(1-Cyanocyclopropyl)-4-fluoro-[1,1′-biphenyl]-2-yl)methoxy)pyridin-2-yl)propanoic acid], the EC50 is reported as 10 to 500 nM.

`O=C(O)CCCc1ccc(OCc2cc(F)ccc2-c2ccc3c(c2)CCCC3=O)cc1` [Example 34, 4-(4-((5-Fluoro-2-(5-oxo-5,6,7,8-tetrahydronaphthalen-2-yl)benzyl)oxy)phenyl)butanoic acid] was tested, and the EC50 was 500 to 5000 nM.

For `N#CC1(c2ccc(-c3ccc(F)cc3COc3ccc(CCC(=O)O)cc3)cn2)CC1` [Example 6, 3-(4-((2-(6-(1-Cyanocyclopropyl)pyridin-3-yl)-5-fluorobenzyl)oxy)phenyl)propanoic acid], the EC50 was 500 to 5000 nM.

With `O=C(O)CCCc1ccc(OCc2cc(F)ccc2-c2nc(C3CC3)cs2)cc1` [Example 50, 4-(4-((2-(4-Cyclopropylthiazol-2-yl)-5-fluorobenzyl)oxy)phenyl)butanoic acid] the EC50 was 500 to 5000 nM.

Work on `O=C(O)CCCc1ccc(OCc2cc(F)ccc2-c2ccc3c(c2)CCC=C3)cc1` [Example 35, 4-(4-((2-(7,8-Dihydronaphthalen-2-yl)-5-fluorobenzyl)oxy)phenyl)butanoic acid] yielded an EC50 of 10 to 500 nM.

Work on `COC1CCCc2cc(-c3ccc(F)cc3COc3ccc(CCCC(=O)O)cc3)ccc21` (centres unmarked) [Example 38, 4-(4-((5-Fluoro-2-(5-methoxy-5,6,7,8-tetrahydronaphthalen-2-yl)benzyl)oxy)phenyl)butanoic acid] yielded an EC50 of 5000 to 50000 nM.

Molecule `O=C(O)CCCc1ccc(OCc2cc(F)ccc2-c2nc3c(s2)CCCCC3)cc1` [Example 41, 4-(4-((5-Fluoro-2-(5,6,7,8-tetrahydro-4H-cyclohepta[d]thiazol-2-yl)benzyl)oxy)phenyl)butanoic acid] has an EC50 of 10 to 500 nM.
